These results are taken from US11376235B2, “Inhibitor of inflammasome activation” (KRACIE HOLDINGS, LTD., priority 2016, dated 2022).

For data set [1], the system named is NLRP3 inflammasome. Kind of data set: Inflammasome activation by ATP stimulation in PMA-differentiated, LPS-treated THP1-Null cells (Test 1). It is filed as cell-based, human. Conditions: ATP 5 mM stimulation, arctigenin at concentrations of 10 μM and higher, 1 h pretreatment, vs Control without arctigenin, Dunnett's test. Here is the method: (§1) THP1-Null cells (Invivogen) or THP-1 cells (JCRB Cell Bank), which are NLRP3 inflammasome reporter cell lines derived from human monocytic cells, were cultured in a RPMI medium containing 10% FBS and 4.5% glucose (hereinafter referred to as a THP1 culture medium, SIGMA). The cells were treated with 500 nM PMA (SIGMA) for 3 hours to differentiate the cells into macrophages, and the cells were washed with PBS twice and then used for the following experiment.
(§2) The THP1-Null cells or the THP-1 cells after the induction of differentiation were suspended in the THP1 culture medium at 1.0×10^6 cells/mL and seeded in a 96-well microplate at 180 μL per well (1.8×10^5 cells/well). […] The IL-1β concentrations of the culture supernatants were measured using IL-1β reporter cell line HEKBlue (trademark) IL-18/IL-1β cells (Invivogen) or the ELISA method. The caspase-1 concentrations of the culture supernatants were also measured by the ELISA method.
(§3) HEK Blue (trademark) IL-18/IL-1β cells were used for measuring the IL-1β concentrations of the medium supernatants collected after the ATP treatment. […] The absorbance of each well at 655 nm was measured using a microplate reader, and the IL-1β concentration was measured. […]
(§4) Caspase-1 was measured following the TDS of Quantikine (registered trademark) ELISA Human Caspase-1/ICE (R&D systems (trademark)). […]

For data set [2], the system named is NLRP3 inflammasome. Kind of data set: Inflammasome activation by palmitic acid stimulation in PMA-differentiated, LPS-treated THP1-Null cells (Test 2). Particulars: palmitic acid 500 μM stimulation, 12 h, arctigenin 500 nM pretreatment, vs Control, Student's t-test, ELISA. It is filed as cell-based, human. Here is the method: as §1, §2, §3, §4
For orientation: An ELISA detects its analyte on a solid surface through an enzyme-linked reagent.

Data set [3] deals with NLRP3 inflammasome. Kind of data set: Inflammasome activation by MSU stimulation in PMA-differentiated, LPS-treated THP1-Null cells (Test 3). The data set is classed as cell-based, human. Conditions: MSU 100 μg/mL stimulation, 3 h, vs Control, ELISA. Here is the method:
as §1, §2, §3, §4

For the next data set, the system named is AIM2 inflammasome. Kind of data set: Inflammasome activation by Poly(dA:dT) stimulation in PMA-differentiated, LPS-treated THP-1 cells (Test 4). It is filed as cell-based, human. Particulars: Poly(dA:dT)/LyoVec 5 μg/mL stimulation, 8 h, vs Control, Student's t-test, ELISA. Here is the method: as §1, §2, §3, §4
For data set [4] the following is noted: stated as a fact, no test described; cited from earlier work.

For `COc1cc(C[C@H]2C(=O)OC[C@@H]2Cc2ccc(OC)c(OC)c2)ccc1O` [arctigenin], the caspase-1 amount result in the data set with NLRP3 inflammasome [1] (ELISA, FIG. 2) is reported as “decreased with significance”; in the data set with NLRP3 inflammasome [2] (FIG. 4), “decreased with significance”; in the data set with NLRP3 inflammasome [3] (arctigenin pretreatment, FIG. 6), “decreased concentration-dependently”; in the data set on AIM2 inflammasome (arctigenin 250 nM pretreatment, FIG. 8) it was “decreased with significance”. The “released IL-1β amount” value in the data set with NLRP3 inflammasome [1] (HEK Blue IL-18/IL-1β reporter cells, FIG. 1) was “decreased with significance”; in the data set on NLRP3 inflammasome [2] (FIG. 3) it was “decreased with significance”; with NLRP3 inflammasome [3] (arctigenin at concentrations of 10 μM and higher, Dunnett's test, FIG. 5) it was “decreased with significance”; with AIM2 inflammasome (arctigenin 500 nM pretreatment, FIG. 7) it was “decreased with significance”. In addition, the solubility in water entry in data set [4] is recorded as “insoluble in water”.
